In brackets after ≈: the same amount, converted by molar mass. Like-named read-outs stand apart in the source and are kept apart here.
Key:
Experiment in all cases: In vitro MIC, dilution of a liquid medium
Format in all cases: cell-based
[1] = tested on: Klebsiella pneumoniae Exp. 52 145; conditions: read-out: minimum inhibiting concentration (MIC)
Method: (§1) The method used was a dilution of a liquid medium where a series of tubes received the same quantity of a sterile nutritive media and increasing doses of the test compounds were placed therein. Then each tube was seeded with a bacterial strain and was incubated for 24 or 48 hours at 37° C. in an oven. The increasing inhibition was determined by transillumination to determine the minimum inhibiting concentration (MIC in μg/ml) and the results are reported in the following Tables.

[2] = tested on: Escherichia Coli Resistant Tetracycline ATCC 11 303; conditions: read-out: minimum inhibiting concentration (MIC)
Method: as §1

[3] = tested on: Staphylococcus aureus ATCC 6 538 Penicillin-Sensitive; conditions: 37° C., read-out: minimum inhibiting concentration (MIC)
Method: as §1

[4] = tested on: Escherichia Coli Exp. TO26 B6; conditions: 37° C., read-out: minimum inhibiting concentration (MIC)
Method: as §1

[5] = tested on: Escherichia Coli Sensitive Tetracycline ATCC 9 637; conditions: read-out: minimum inhibiting concentration (MIC)
Method: as §1

[6] = tested on: Serratia Resistant Gentamicine 2 532; conditions: 37° C., read-out: minimum inhibiting concentration (MIC)
Method: as §1

[7] = tested on: Streptococcus faecalis 5 432; conditions: Enterococcus faecalis, 5432, 37° C., read-out: minimum inhibiting concentration (MIC)
Method: as §1

[8] = tested on: Proteus vulgaris (indol +) A 232; conditions: read-out: minimum inhibiting concentration (MIC)
Method: as §1

[9] = tested on: Streptococcus pyogenes A 561; conditions: read-out: minimum inhibiting concentration (MIC)
Method: as §1

[10] = tested on: Streptococcus faecalis 99 F 74; conditions: Enterococcus faecalis, 99F74, 37° C., read-out: minimum inhibiting concentration (MIC)
Method: as §1

[11] = tested on: Providencia Du 48; conditions: 37° C., read-out: minimum inhibiting concentration (MIC)
Method: as §1

[12] = tested on: Enterobacter cloacae 681; conditions: 37° C., read-out: minimum inhibiting concentration (MIC)
Method: as §1

[13] = tested on: Escherichia Coli Resistant Gentamicine, Tobramycine R 55 123 D; conditions: read-out: minimum inhibiting concentration (MIC)
Method: as §1

[14] = tested on: Staphylococcus aureus exp. n° 54 146; conditions: 37° C., read-out: minimum inhibiting concentration (MIC)
Method: as §1

[15] = tested on: Klebsiella pneumoniae 2 536 Resistant Gentamicine; conditions: read-out: minimum inhibiting concentration (MIC)
Method: as §1

[16] = tested on: Salmonella typhimurium 420; conditions: Salmonella enterica, read-out: minimum inhibiting concentration (MIC)
Method: as §1

[17] = tested on: Staphylococcus aureus UC 1 128 Penicillin-resistant; conditions: 37° C., read-out: minimum inhibiting concentration (MIC)
Method: as §1

[18] = tested on: Proteus mirabilis (indol -) A 235; conditions: read-out: minimum inhibiting concentration (MIC)
Method: as §1

[19] = tested on: Bacillus subtilis ATCC 6 633; conditions: read-out: minimum inhibiting concentration (MIC)
Method: as §1

| SMILES | MIC ([2]; ATCC11, 24 H, 37° C.) [µg/mL] | MIC ([3]; ATCC6, 24 H) [µg/mL] | MIC ([3]; ATCC6, 48 H) [µg/mL] | MIC ([4]; 24 H) [µg/mL] | MIC ([4]; 48 H) [µg/mL] | MIC ([6]; 24 H) [µg/mL] | MIC ([6]; 48 H) [µg/mL] | MIC ([7]; 24 H) [µg/mL] | MIC ([7]; 48 H) [µg/mL] | MIC ([10]; 24 H) [µg/mL] | MIC ([10]; 48 H) [µg/mL] | MIC ([11]; DU48, 24 H) [µg/mL] | MIC ([11]; DU48, 48 H) [µg/mL] | MIC ([12]; 24 H) [µg/mL] | MIC ([12]; 48 H) [µg/mL] | MIC ([13]; 24 h) [µg/mL] | MIC ([13]; 48 h) [µg/mL] | MIC ([14]; 24 H) [µg/mL] | MIC ([14]; 48 H) [µg/mL] | MIC ([16]; 24 h) [µg/mL] | other results |
| --- | --- | --- | --- | --- | --- | --- | --- | --- | --- | --- | --- | --- | --- | --- | --- | --- | --- | --- | --- | --- | --- |
| CCOC(=O)CO/N=C(\C(=O)NC1C(=O)N2C(C(=O)O)=C(COC(C)=O)CS[C@H]12)c1csc(N)n1 (stereo partly shown) [Example 2, 7-[2-(2-amino-4-thiazolyl)-2-carbethoxymethyloxyimino-acetamido]-3-acetoxymethyl-ceph-3-eme-4-carboxylic acid] | 0.5 (≈ 0.948 µM) | 3 (≈ 5.69 µM) | 5 (≈ 9.48 µM) | 1 (≈ 1.9 µM) | 1 (≈ 1.9 µM) | 5 (≈ 9.48 µM) | 5 (≈ 9.48 µM) | 5 (≈ 9.48 µM) | > 40 | > 40 | > 40 | 5 (≈ 9.48 µM) | 5 (≈ 9.48 µM) | 10 (≈ 19 µM) | 10 (≈ 19 µM) | 1 (≈ 1.9 µM) | 1 (≈ 1.9 µM) | 3 (≈ 5.69 µM) | 5 (≈ 9.48 µM) | 1 (≈ 1.9 µM) | MIC ([1]; EXP.52145, 48 H, 37° C.): 0.2 µg/mL (≈ 0.379 µM); MIC ([1]; EXP.52145, 24 h): 0.1 µg/mL (≈ 0.19 µM); MIC ([2]; ATCC11, 48 h): 1 µg/mL (≈ 1.9 µM); MIC ([5]; ATCC9, 24 H, 37° C.): 2 µg/mL (≈ 3.79 µM); MIC ([5]; ATCC9, 48 H, 37° C.): 2 µg/mL (≈ 3.79 µM); MIC ([8]; 24 h): 1 µg/mL (≈ 1.9 µM); MIC ([8]; 48 h): 1 µg/mL (≈ 1.9 µM); MIC ([9]; A561, 24 H, 37° C.): 0.05 µg/mL (≈ 0.0948 µM); MIC ([9]; A561, 48 h): 0.1 µg/mL (≈ 0.19 µM); MIC ([15]; 24 H, 37° C.): 2 µg/mL (≈ 3.79 µM); MIC ([15]; 48 H, 37° C.): 2 µg/mL (≈ 3.79 µM); MIC ([16]; 48 H, 37° C.): 2 µg/mL (≈ 3.79 µM); MIC ([17]; UC1, 24 H): 3 µg/mL (≈ 5.69 µM); MIC ([17]; UC1, 48 H): 3 µg/mL (≈ 5.69 µM); MIC ([18]; 24 H, 37° C.): 0.2 µg/mL (≈ 0.379 µM); MIC ([18]; 48 H, 37° C.): 0.2 µg/mL (≈ 0.379 µM); MIC ([19]; ATCC6, 24 H, 37° C.): 0.5 µg/mL (≈ 0.948 µM); MIC ([19]; ATCC6, 48 H, 37° C.): 5 µg/mL (≈ 9.48 µM) |
| CC(=O)OCC1=C(C(=O)O)N2C(=O)C(NC(=O)/C(=N\OCC(=O)O)c3csc(N)n3)[C@H]2SC1 (stereo partly shown) [Example 5, disodium 7-[2-(2-amino-4-thiazolyl)-2-hydroxycarbonylmethoxyimino-acetamido]-3-acetoxymethyl-ceph-3-eme-4-carboxylate] | 0.05 | 10 | 10 | 0.1 | 0.1 | 1 | 2 | 20 | > 40 | > 40 | > 40 | 1 | 2 | 5 | 20 | 0.1 | 0.1 | 20 | 20 | 0.2 | MIC ([1]; EXP.52145, 24 h): 0.1 µg/mL; MIC ([1]; EXP.52145, 48 h): 0.1 µg/mL; MIC ([2]; ATCC11, 48 H, 37° C.): 0.05 µg/mL; MIC ([5]; ATCC9, 24 h): 0.2 µg/mL; MIC ([5]; ATCC9, 48 h): 0.2 µg/mL; MIC ([8]; 24 h): 0.1 µg/mL; MIC ([8]; 48 h): 0.1 µg/mL; MIC ([9]; A561, 24 H, 37° C.): 0.5 µg/mL; MIC ([9]; A561, 48 H, 37° C.): 0.5 µg/mL; MIC ([15]; 24 h): 0.1 µg/mL; MIC ([15]; 48 h): 0.1 µg/mL; MIC ([16]; 48 H, 37° C.): 0.5 µg/mL; MIC ([17]; UC1, 24 H): 20 µg/mL; MIC ([17]; UC1, 48 H): 20 µg/mL; MIC ([18]; 24 H, 37° C.): ≤ 0.02 µg/mL; MIC ([18]; 48 H, 37° C.): ≤ 0.02 µg/mL |
| CC(=O)OCC1=C(C(=O)O)N2C(=O)C(NC(=O)/C(=N\OCC#N)c3csc(N)n3)C2SC1 (stereo not shown) [Example 8, sodium 7-[2-(2-amino-4-thiazolyl)-2-cyano-methoxyimino-acetamido]-3-acetoxymethyl-ceph-3-eme-4-carboxylate] | 0.05 | 2 | 2 | 0.2 | 0.2 | 2 | 2 | 3 | 20 | 10 | > 40 | 5 | 5 | 3 | 5 | 0.2 | 0.2 | 2 | 3 | 0.5 | MIC ([1]; EXP.52145, 24 H, 37° C.): 0.05 µg/mL; MIC ([1]; EXP.52145, 48 H, 37° C.): 0.05 µg/mL; MIC ([2]; ATCC11, 48 H, 37° C.): 0.05 µg/mL; MIC ([5]; ATCC9, 24 h): 0.5 µg/mL; MIC ([5]; ATCC9, 48 h): 0.5 µg/mL; MIC ([9]; A561, 24 H, 37° C.): 0.05 µg/mL; MIC ([9]; A561, 48 H, 37° C.): 0.05 µg/mL; MIC ([15]; 24 H, 37° C.): 1 µg/mL; MIC ([15]; 48 H, 37° C.): 1 µg/mL; MIC ([16]; 48 h): 0.5 µg/mL; MIC ([17]; UC1, 24 H): 2 µg/mL; MIC ([17]; UC1, 48 H): 3 µg/mL; MIC ([18]; 24 H, 37° C.): 0.05 µg/mL; MIC ([18]; 48 H, 37° C.): 0.05 µg/mL; MIC ([19]; ATCC6, 48 H, 37° C.): 1 µg/mL; MIC ([19]; ATCC6, 24 h): 0.5 µg/mL |
| CC(=O)OCC1=C(C(=O)O)N2C(=O)C(NC(=O)/C(=N\OCC(N)=O)c3csc(N)n3)[C@H]2SC1 (stereo partly shown) [Example 11, sodium 7-[2-(2-amino-4-thiazolyl)-2-(aminocarbonylmethoxyimino)-acetamido]-3-acetoxymethyl-ceph-3-eme-4-carboxylate] | 0.05 | 2 | 3 | 0.1 | 0.1 | 2 | 2 | 5 | 20 | 20 | > 40 | 5 | 5 | 2 | 10 | 0.1 | 0.1 | 3 | 5 | 0.2 | MIC ([1]; EXP.52145, 24 H, 37° C.): 0.05 µg/mL; MIC ([1]; EXP.52145, 48 H, 37° C.): 0.05 µg/mL; MIC ([2]; ATCC11, 48 H, 37° C.): 0.05 µg/mL; MIC ([5]; ATCC9, 24 h): 0.2 µg/mL; MIC ([5]; ATCC9, 48 h): 0.5 µg/mL; MIC ([8]; 24 H, 37° C.): 5 µg/mL; MIC ([8]; 48 H, 37° C.): 40 µg/mL; MIC ([9]; A561, 24 h): 0.1 µg/mL; MIC ([9]; A561, 48 h): 0.1 µg/mL; MIC ([15]; 24 h): 0.5 µg/mL; MIC ([15]; 48 h): 0.5 µg/mL; MIC ([16]; 48 h): 0.2 µg/mL; MIC ([17]; UC1, 24 H): 5 µg/mL; MIC ([17]; UC1, 48 H): 5 µg/mL; MIC ([18]; 24 h): 0.1 µg/mL; MIC ([18]; 48 h): 0.1 µg/mL; MIC ([19]; ATCC6, 48 H, 37° C.): 1 µg/mL; MIC ([19]; ATCC6, 24 h): 0.5 µg/mL |
